The text below walks through data of patent EP3409761B1, “CULTURE MEDIUM COMPOSITION, AND METHOD FOR CULTURING CELL OR TISSUE USING SAID COMPOSITION” (Nissan Chemical Corporation, priority 2012, dated 2014).

Holding throughout (type): cell-based
Test [1] deals with human cervical cancer cell line HeLa. In words: Comparison with single layer culture method using agent for inducing apoptosis. Conditions: day 4. How it is done: This aqueous solution was sterilized at 121°C for 20 min in an autoclave. […] Each plate was cultured by being stood still in a CO2 incubator (37°C, 5% CO2). […] To the culture medium on day 4 was added an ATP reagent (150 µL) (CellTiter-Glo (registered trade mark) Luminescent Cell Viability Assay, manufactured by Promega) to give a suspension, which was stood for about 10 min at room temperature, and the luminescence intensity (RLU value) was measured by FlexStation3 (manufactured by Molecular Devices), and the number of viable cells was measured by subtracting the luminescence value of the medium alone. For WST-8 measurement, a WST-8 solution (manufactured by DOJINDO Laboratories, 15 µL) was added, the mixture was incubated at 37°C for 100 min, the absorbance at 450 nm was measured by an absorbance spectrometer (manufactured by Molecular Devices, SPECTRA MAX 190), and the number of viable cells was measured by subtracting the absorbance of the medium alone.

Test [2] has the same test system. Kind of test: Cell proliferation test using various anticancer drugs. To be noted: DAG 0.030% medium; for cell density: 5 days later. The protocol: This aqueous solution was sterilized at 121°C for 20 min in an autoclave. […] The anticancer drug used was Adriamycin (manufactured by WAKO), Paclitaxel (manufactured by WAKO) or Mitomycin C (manufactured by WAKO).
Successively, this plate was cultured by being stood still in a CO2 incubator (37°C, 5% CO2) for 7 days. After culturing for 3, 5, 7 days, to the culture medium was added a WST-8 solution (manufactured by DOJINDO Laboratories, 20 µL), and the mixture was incubated at 37°C for 100 min. The absorbance at 450 nm was measured by an absorbance spectrometer (manufactured by Molecular Devices, SPECTRA MAX 190), and the number of viable cells was measured by subtracting the absorbance of the medium alone. The culture medium containing the cells after 5 days of culture was stirred with a pipette and the obtained stirred solution (20 µL) was mixed with Trypan Blue stain 0.4% (manufactured by Invitrogen, 20 µL) and the cell density was measured under a microscope.

Test [3] shares this test system. In words: Comparison with single layer culture method in cell proliferation test using anticancer drug. Conditions: day 4. How it is done: This aqueous solution was sterilized at 121°C for 20 min in an autoclave. […] Each plate was cultured by being stood still in a CO2 incubator (37°C, 5% CO2). […] The anticancer drug used was Adriamycin (manufactured by WAKO), Paclitaxel (manufactured by WAKO) or Mitomycin C (manufactured by WAKO). To the culture medium on day 4 was added an ATP reagent (150 µL) (CellTiter-Glo (registered trade mark) Luminescent Cell Viability Assay, manufactured by Promega) to give a suspension, which was stood for about 10 min at room temperature, and the luminescence intensity (RLU value) was measured by FlexStation3 (manufactured by Molecular Devices), and the number of viable cells was measured by subtracting the luminescence value of the medium alone. For WST-8 measurement, a WST-8 solution (manufactured by DOJINDO Laboratories, 15 µL) was added, the mixture was incubated at 37°C for 100 min, the absorbance at 450 nm was measured by an absorbance spectrometer (manufactured by Molecular Devices, SPECTRA MAX 190), and the number of viable cells was measured by subtracting the absorbance of the medium alone.

The mark [4] stands for this setting: agent 1 µM, deacylated gellan gum addition group (0.015%).
Where [5] appears, read: agent 1 µM, single layer culture group.
Where [6] appears, read: agent 10 µM, deacylated gellan gum addition group (0.015%).
[7] abbreviates: agent 10 µM, single layer culture group.
The mark [8] stands for this setting: agent 0.2 µM, deacylated gellan gum addition group (0.015%).
Where [9] appears, read: agent 0.2 µM, single layer culture group.
Where [10] appears, read: agent 2 µM, deacylated gellan gum addition group (0.015%).
Setting [11] is: agent 2 µM, single layer culture group.
Where [12] appears, read: agent 100 µM, deacylated gellan gum addition group (0.015%).
[13] abbreviates: agent 100 µM, single layer culture group.
Setting [14] is: drug 0.005 µM, deacylated gellan gum addition group (0.015%).
[15] abbreviates: drug 0.005 µM, single layer culture group.
The mark [16] stands for this setting: drug 0.05 µM, deacylated gellan gum addition group (0.015%).
Where [17] appears, read: drug 0.05 µM, single layer culture group.
The mark [18] stands for this setting: drug 0.5 µM, deacylated gellan gum addition group (0.015%).
Setting [19] is: drug 0.5 µM, single layer culture group.

Molecules are shown by their SMILES. Starred links: 1 amine or outer side, 2 acyl side, 3 side chain; linkers in the order of their positions; H or OH if unused. Positions of bridges follow the written chain, without caps; N, C: chain ends. Non-standard residues stand in square brackets, D forms with d. Residues, ends and D or L forms follow the SMILES beside them. Chains are numbered I, II in the order given. Actinocin(9to1) = Cc1c2oc3c(C)ccc(C(=O)[*:1])c3nc-2c(C(=O)[*:2])c(N)c1=O; NMeV = CN[C@H](C(=O)O)C(C)C; Sar = CNCC(=O)O Where only a bound is given, the exact number is not on record here.

`Cc1c2oc3c(C)ccc(C(=O)N[C@@H]4C(=O)N[C@H](C(C)C)C(=O)N5CCC[C@H]5C(=O)N(C)CC(=O)N(C)[C@@H](C(C)C)C(=O)O[C@@H]4C)c3nc-2c(C(=O)N[C@@H]2C(=O)N[C@H](C(C)C)C(=O)N3CCC[C@H]3C(=O)N(C)CC(=O)N(C)[C@@H](C(C)C)C(=O)O[C@@H]2C)c(N)c1=O` [Actinomycin D] (I: T[dV]P[Sar][NMeV] / II: T[dV]P[Sar][NMeV]; ester I:1-I:C, II:1-II:C; linker I:N-II:N via Actinocin(9to1)): the “% Control value of the RLU value (ATP measurement)” value (from here on “% Control value of the RLU value”) in test [1] (setting [4]) came out at 4 % Control; in test [1] (setting [5]) it was 2 % Control; in test [1] (setting [6]), 6 % Control; in test [1] (setting [7]), 2 % Control. Moreover, the “% Control value of the absorbance at 450 nm (WST-8 measurement)” value (“% Control value of the absorbance” below) in test [1] (setting [4]) is given as 3 % Control; in test [1] (setting [5]) it was 2 % Control; in test [1] (setting [6]), 12 % Control; in test [1] (setting [7]), 4 % Control.
Consider `CC[C@@]1(O)C(=O)OCc2c1cc1n(c2=O)Cc2cc3ccccc3nc2-1` [Camptothecin], for which the “% Control value of the RLU value” value came out at 27 % Control in test [1] (setting [8]), 63 % Control in test [1] (setting [9]), 11 % Control in test [1] (setting [10]) and 44 % Control in test [1] (setting [11]). In addition, the “% Control value of the absorbance” value in test [1] (setting [8]) is given as 24 % Control; in test [1] (setting [9]), 68 % Control; in test [1] (setting [10]) it was 7 % Control; in test [1] (setting [11]), 28 % Control.
On to `C[C@@H]1C[C@@H]([C@H](O)CC2CC(=O)NC(=O)C2)C(=O)[C@@H](C)C1` [Cycloheximide], for which the “% Control value of the RLU value” value in test [1] (setting [6]) is given as 9 % Control; in test [1] (setting [7]), 29 % Control; in test [1] (setting [12]), 4 % Control; in test [1] (setting [13]), 9 % Control. Also, the “% Control value of the absorbance” value in test [1] (setting [6]) stood at 4 % Control; in test [1] (setting [7]), 21 % Control; in test [1] (setting [12]), 1 % Control; in test [1] (setting [13]) it was 7 % Control.
`C[C@@H]1C[C@H]2[C@@H]3CCC4=CC(=O)C=C[C@]4(C)[C@@]3(F)[C@@H](O)C[C@]2(C)[C@@]1(O)C(=O)CO` [Dexamethasone]: the “% Control value of the RLU value” value stood at 232 % Control in test [1] (setting [4]), 241 % Control in test [1] (setting [6]) and 116 % Control in test [1] (setting [7]). Also, the “% Control value of the absorbance” value in test [1] (setting [4]) stood at 184 % Control; in test [1] (setting [5]) it was 89 % Control; in test [1] (setting [6]), 173 % Control; in test [1] (setting [7]) it was 92 % Control.
For `COc1cc([C@@H]2c3cc4c(cc3[C@@H](O[C@@H]3O[C@@H]5CO[C@@H](C)O[C@H]5[C@H](O)[C@H]3O)[C@H]3COC(=O)[C@H]23)OCO4)cc(OC)c1O` [Etoposide], the “% Control value of the RLU value” value is recorded as 35 % Control in test [1] (setting [4]), 64 % Control in test [1] (setting [5]), 24 % Control in test [1] (setting [6]) and 65 % Control in test [1] (setting [7]). The “% Control value of the absorbance” value stood at 39 % Control in test [1] (setting [4]), 68 % Control in test [1] (setting [5]), 23 % Control in test [1] (setting [6]) and 63 % Control in test [1] (setting [7]).
For the compound `CO[C@@]12[C@H](COC(N)=O)C3=C(C(=O)C(C)=C(N)C3=O)N1C[C@@H]1N[C@@H]12` [Mitomycin C], the cell density is 1.0 10^4 cells/mL in test [2] (drug 0.01 µM), 0.4 10^4 cells/mL in test [2] (drug 0.1 µM) and 0.1 10^4 cells/mL in test [2] (drug 1 µM). Further, the “cell number (absorbance at 450 nm, WST-8)” value was 0.089 in test [2] (drug 0.01 µM, day 3); 0.016 in test [2] (drug 0.01 µM, day 5); below 0 in test [2] (drug 0.01 µM, day 7); 0.032 in test [2] (drug 0.1 µM, day 3); below 0 in test [2] (drug 0.1 µM, day 5); below 0 in test [2] (drug 0.1 µM, day 7). The “cell number (absorbance at 450 nm, WST-8)” value in test [2] (drug 1 µM, day 3) is below 0; in test [2] (drug 1 µM, day 5), below 0; in test [2] (drug 1 µM, day 7), below 0. The “% Control value of the RLU value” value is on record as 83 % Control in test [3] (setting [14]); 99 % Control in test [3] (setting [15]); 48 % Control in test [3] (setting [16]); 89 % Control in test [3] (setting [17]); 29 % Control in test [3] (setting [18]); 86 % Control in test [3] (setting [19]). For the same compound, the “% Control value of the absorbance” value in test [3] (setting [14]) amounted to 94 % Control; in test [3] (setting [15]) it was 101 % Control; in test [3] (setting [16]) it was 37 % Control; in test [3] (setting [17]), 83 % Control; in test [3] (setting [18]) it was 12 % Control; in test [3] (setting [19]), 71 % Control.
